The text below walks through data of ChEMBL document CHEMBL5729064, “Benzofuran, benzothiophene, and indole analogs that inhibit the formation of tau oligomers and their method of use” (2022).

One may read the IC50 as the midpoint of a concentration-inhibition curve.

For the test, the target named is Microtubule-associated protein tau (Homo sapiens, UniProt P10636). Description: AlphaLisa Assay: Tau target (equal mixture of each construct at 300 nM) was prepared in buffer (Tris-HCl pH 7.4) and was incubated in 96-well plates at room temperature for 4 hours with vehicle control (DMSO) and a dose range of a compound of the disclosure (0.098 uM-50 uM). AlphaLisa acceptor beads & donor beads with ligands to the epitope tags (Perkin Elmer) were diluted (final 20 ug/mL per bead) in bead buffer (25 mM HEPES pH 7.4, 100 mM NaCl, 0.1% Tween-20), added to the wells and incubated 1 hour at room temperature. The positive control (non-incubated target) & blank (no tau) were prepared and mixed with beads in bead buffer and the plate was read immediately using the EnVision plate reader (Perkin Elmer). A general note: Alpha assays give light when donor and acceptor beads are brought close together.
Microtubule-associated protein tau, sequence (P10636 whole entry): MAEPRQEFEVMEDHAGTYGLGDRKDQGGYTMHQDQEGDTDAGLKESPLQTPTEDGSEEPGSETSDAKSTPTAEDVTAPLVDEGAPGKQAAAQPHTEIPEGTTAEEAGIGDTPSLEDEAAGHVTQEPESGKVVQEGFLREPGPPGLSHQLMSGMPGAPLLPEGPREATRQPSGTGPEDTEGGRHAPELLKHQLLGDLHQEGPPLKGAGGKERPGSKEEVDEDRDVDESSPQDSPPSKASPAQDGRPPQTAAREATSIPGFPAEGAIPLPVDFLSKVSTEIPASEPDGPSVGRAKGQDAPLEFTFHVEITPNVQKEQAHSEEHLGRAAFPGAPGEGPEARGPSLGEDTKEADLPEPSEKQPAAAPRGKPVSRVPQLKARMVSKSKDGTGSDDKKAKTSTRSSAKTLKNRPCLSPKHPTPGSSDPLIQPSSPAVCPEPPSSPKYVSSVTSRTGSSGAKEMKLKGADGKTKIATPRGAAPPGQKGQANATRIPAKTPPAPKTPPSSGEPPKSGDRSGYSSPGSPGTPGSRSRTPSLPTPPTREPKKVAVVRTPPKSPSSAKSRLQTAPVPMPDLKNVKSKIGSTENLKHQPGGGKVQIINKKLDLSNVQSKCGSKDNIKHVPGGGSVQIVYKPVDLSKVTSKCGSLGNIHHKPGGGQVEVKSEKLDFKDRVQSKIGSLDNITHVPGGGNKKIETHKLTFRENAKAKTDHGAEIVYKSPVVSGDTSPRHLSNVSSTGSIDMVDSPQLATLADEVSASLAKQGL

Take `CC(=O)CCc1oc2ccc(-c3cccc(O)c3)cc2c1-c1ccc(C)o1`: the IC50 came to 1390 nM.
The result for `CC(=O)CCc1oc2cc(-c3cccnc3)ccc2c1-c1ccc(C)o1` reads 4020 nM; that for `Cc1ccc(-c2c(CCc3nc4ccccc4[nH]3)oc3ccc(Br)cc23)o1`, 2060 nM.
Take `CC(=O)CCc1oc2ccc(-c3cccnc3)cc2c1-c1ccc(C)o1`: the IC50 amounted to 7550 nM.
With `COc1ccc(-c2ccc3oc(CCC(C)=O)c(-c4ccc(C)o4)c3c2)cn1` the figure was 1270 nM; with `COc1cc(-c2ccc3c(-c4ccc(C)o4)c(CCC(C)=O)oc3c2)ccn1`, 1570 nM.
Consider `COc1cc(-c2ccc3oc(CCC(C)=O)c(-c4ccc(C)o4)c3c2)ccn1`, for which the IC50 was 100 nM.
The result for `Cc1ccc(-c2c(CCC(C)(C)O)oc3ccc(Br)cc23)o1` reads 100 nM.
For `CC(=O)CCc1oc2ccc(-c3ccncc3)cc2c1-c1ccc(C)o1`, the IC50 came out at 6350 nM.
With `COc1cccc(-c2ccc3oc(CCC(C)=O)c(-c4ccc(C)o4)c3c2)c1` the figure was 3030 nM.
The result for `Cc1ccc(C(C)(O)CCc2oc3ccc(Br)cc3c2-c2ccc(C)o2)cc1` (stereo unspecified) reads 1930 nM.
